According to the supplement of paper PMC12463676, “Small-molecule dissolution of stress granules by redox modulation benefits ALS models” (Nature Chemical Biology, 2025):

compound: O=[As]([O-])(O)O.[K+] [potassium arsenate]; test: thermal stability z-score vs DMSO; higher = more thermally stabilized by treatment; conditions: HeLa; arsenate concentration 1 mM
Experimental: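 Cellular thermal proteome profiling in HeLa cells treated with 1 mM arsenate for 1 h (DMSO pretreatment), heated to ten temperatures (37-66.3 °C). Soluble protein was quantified by TMT mass spectrometry relative to DMSO controls; the thermal stability score was transformed to a z-score; mean of n = 3 experiments.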
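Also: each temperature applied for 3 min, abundance score taken as mean log2 fold change at the two lowest temperatures, z-score obtained by mean subtraction and division by SD.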

Chain of UniProt O15541 (O15541 whole entry): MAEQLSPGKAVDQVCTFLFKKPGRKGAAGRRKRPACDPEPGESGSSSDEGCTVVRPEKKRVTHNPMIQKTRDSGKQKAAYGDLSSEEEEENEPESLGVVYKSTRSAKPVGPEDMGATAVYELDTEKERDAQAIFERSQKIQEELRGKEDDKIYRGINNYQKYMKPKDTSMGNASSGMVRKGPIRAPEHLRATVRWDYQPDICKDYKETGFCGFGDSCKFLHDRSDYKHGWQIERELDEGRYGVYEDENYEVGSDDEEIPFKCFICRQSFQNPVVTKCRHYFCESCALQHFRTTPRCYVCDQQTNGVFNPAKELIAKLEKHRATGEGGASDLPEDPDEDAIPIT
Chain of UniProt Q9UNY4 (Q9UNY4 whole entry): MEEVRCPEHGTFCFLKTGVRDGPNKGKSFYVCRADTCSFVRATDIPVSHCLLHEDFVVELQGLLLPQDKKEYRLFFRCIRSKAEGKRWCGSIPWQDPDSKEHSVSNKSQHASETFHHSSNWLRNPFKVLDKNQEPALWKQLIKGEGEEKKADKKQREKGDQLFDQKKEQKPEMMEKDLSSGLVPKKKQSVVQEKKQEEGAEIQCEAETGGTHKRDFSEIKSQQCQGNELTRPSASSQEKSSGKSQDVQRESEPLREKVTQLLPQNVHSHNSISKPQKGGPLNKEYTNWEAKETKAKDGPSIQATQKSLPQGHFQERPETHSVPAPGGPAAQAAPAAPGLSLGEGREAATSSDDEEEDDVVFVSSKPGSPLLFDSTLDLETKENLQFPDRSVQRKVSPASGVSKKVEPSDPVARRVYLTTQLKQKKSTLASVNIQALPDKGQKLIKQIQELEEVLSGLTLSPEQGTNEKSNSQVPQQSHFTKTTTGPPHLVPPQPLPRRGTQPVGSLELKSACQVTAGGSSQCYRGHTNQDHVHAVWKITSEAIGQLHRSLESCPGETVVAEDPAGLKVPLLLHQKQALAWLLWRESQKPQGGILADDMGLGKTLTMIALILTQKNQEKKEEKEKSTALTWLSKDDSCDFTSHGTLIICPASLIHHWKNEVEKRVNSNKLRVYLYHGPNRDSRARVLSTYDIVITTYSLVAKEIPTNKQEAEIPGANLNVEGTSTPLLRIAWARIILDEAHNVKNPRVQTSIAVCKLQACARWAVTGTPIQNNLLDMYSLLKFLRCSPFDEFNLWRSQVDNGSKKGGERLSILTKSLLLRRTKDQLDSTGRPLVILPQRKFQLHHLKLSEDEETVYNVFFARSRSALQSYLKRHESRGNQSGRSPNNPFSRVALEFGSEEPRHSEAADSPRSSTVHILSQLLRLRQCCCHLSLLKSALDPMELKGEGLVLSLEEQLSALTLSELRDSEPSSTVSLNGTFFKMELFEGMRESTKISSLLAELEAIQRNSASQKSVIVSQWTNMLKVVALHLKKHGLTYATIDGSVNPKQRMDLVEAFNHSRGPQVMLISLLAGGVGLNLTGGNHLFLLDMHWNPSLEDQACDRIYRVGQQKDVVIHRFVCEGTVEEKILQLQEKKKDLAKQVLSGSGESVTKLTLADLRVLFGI
Chain of UniProt Q15628 (Q15628 whole entry): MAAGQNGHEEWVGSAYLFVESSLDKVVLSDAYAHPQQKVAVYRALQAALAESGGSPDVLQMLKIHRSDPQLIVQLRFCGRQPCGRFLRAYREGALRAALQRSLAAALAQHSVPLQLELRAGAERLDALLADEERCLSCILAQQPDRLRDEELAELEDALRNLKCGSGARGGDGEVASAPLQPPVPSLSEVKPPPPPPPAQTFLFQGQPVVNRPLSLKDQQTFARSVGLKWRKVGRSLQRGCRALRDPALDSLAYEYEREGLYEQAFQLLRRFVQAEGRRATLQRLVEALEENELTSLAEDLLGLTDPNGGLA
Chain of UniProt P18084 (P18084 whole entry): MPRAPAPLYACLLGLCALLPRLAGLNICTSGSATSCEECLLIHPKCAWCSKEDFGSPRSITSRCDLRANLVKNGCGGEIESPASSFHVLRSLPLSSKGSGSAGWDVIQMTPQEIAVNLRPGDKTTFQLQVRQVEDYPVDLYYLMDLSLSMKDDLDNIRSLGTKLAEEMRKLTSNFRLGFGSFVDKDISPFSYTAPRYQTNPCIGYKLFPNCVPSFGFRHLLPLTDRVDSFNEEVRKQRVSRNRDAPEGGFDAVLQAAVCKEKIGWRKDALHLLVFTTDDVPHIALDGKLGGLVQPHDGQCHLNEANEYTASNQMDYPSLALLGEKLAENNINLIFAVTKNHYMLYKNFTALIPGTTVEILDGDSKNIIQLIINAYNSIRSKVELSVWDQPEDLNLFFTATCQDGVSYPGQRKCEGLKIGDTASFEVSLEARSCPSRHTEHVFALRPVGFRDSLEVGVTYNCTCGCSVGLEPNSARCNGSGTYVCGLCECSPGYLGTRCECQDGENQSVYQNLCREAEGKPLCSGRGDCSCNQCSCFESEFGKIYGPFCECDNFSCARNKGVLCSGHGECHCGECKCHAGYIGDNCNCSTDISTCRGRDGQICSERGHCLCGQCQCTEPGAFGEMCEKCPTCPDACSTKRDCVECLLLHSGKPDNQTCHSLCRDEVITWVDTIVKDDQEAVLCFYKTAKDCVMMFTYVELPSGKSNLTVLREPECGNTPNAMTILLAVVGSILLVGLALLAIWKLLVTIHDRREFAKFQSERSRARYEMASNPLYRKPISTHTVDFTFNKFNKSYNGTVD
Chain of UniProt Q8IVL5 (Q8IVL5 whole entry): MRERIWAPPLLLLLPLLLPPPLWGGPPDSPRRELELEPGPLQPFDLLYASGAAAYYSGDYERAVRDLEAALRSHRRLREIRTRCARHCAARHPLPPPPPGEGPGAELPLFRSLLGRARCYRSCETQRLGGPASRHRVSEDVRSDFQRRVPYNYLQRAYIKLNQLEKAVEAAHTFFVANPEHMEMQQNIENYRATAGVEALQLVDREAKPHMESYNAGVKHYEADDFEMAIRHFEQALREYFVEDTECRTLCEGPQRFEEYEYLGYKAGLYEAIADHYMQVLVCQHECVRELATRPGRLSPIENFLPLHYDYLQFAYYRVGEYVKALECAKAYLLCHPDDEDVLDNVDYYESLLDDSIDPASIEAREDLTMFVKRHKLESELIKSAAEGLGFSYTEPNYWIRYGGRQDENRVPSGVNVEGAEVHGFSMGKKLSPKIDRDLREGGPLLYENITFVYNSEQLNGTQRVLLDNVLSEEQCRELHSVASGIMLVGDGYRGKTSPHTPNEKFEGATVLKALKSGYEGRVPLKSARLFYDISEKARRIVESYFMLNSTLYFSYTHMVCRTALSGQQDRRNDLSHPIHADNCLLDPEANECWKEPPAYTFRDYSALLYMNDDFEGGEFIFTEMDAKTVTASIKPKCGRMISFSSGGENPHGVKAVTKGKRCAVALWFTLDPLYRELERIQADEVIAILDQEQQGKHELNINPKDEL
Chain of UniProt Q9H1Y0 (Q9H1Y0 whole entry): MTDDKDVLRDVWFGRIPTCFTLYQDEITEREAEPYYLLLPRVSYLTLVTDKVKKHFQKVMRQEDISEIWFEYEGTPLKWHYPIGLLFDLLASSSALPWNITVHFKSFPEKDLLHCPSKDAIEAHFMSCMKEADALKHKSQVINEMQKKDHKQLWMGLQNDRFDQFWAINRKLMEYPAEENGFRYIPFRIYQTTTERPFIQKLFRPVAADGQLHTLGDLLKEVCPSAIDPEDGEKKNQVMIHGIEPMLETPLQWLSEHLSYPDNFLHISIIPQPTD
Chain of UniProt Q53LP3 (Q53LP3 whole entry): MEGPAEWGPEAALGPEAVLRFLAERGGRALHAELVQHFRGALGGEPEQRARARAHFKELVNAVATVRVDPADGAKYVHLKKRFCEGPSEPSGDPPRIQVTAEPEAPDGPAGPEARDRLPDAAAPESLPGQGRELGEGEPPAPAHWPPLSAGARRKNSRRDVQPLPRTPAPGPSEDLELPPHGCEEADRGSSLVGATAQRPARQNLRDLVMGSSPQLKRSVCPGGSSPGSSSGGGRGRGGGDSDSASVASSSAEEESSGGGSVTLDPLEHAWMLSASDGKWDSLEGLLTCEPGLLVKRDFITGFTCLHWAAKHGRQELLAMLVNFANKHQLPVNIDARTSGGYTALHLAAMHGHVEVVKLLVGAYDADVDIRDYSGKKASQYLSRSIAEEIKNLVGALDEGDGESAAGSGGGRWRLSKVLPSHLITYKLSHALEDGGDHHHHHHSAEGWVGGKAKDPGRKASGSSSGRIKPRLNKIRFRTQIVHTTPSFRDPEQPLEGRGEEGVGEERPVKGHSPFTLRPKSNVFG
Chain of UniProt Q5T1V6 (Q5T1V6 whole entry): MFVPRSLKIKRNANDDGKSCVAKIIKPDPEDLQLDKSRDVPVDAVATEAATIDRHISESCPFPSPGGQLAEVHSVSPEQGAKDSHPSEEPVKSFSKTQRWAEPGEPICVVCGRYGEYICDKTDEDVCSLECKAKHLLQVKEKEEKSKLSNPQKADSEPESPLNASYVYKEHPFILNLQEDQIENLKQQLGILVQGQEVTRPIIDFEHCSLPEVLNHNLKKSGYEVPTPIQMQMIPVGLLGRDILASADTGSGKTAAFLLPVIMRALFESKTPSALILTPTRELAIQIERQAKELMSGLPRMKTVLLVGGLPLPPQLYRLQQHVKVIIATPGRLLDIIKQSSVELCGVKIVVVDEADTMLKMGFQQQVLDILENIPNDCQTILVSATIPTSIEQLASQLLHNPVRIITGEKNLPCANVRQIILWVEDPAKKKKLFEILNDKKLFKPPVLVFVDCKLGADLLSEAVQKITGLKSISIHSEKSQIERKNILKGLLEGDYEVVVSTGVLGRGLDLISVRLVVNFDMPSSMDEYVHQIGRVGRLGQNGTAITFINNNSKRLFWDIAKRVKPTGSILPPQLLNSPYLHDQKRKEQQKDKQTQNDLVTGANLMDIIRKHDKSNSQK
Chain of UniProt Q8WUX2 (Q8WUX2 whole entry): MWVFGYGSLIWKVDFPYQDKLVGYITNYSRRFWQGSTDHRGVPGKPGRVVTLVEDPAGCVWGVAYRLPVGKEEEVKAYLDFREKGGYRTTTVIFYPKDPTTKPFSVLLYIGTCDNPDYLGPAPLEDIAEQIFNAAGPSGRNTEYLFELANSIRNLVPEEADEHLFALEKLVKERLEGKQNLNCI

Target | thermal stability z-score
RBM34 (UniProt P42696) | -0.201
STX7 (UniProt O15400) | 0.507
ASPSCR1 (UniProt Q9BZE9) | -0.304
RPL15 (UniProt P61313) | -0.589
BNIP3 (UniProt Q12983) | 2.44
MRPL40 (UniProt Q9NQ50) | -0.0198
ZC3H14 (UniProt Q6PJT7) | -5.55
NDRG1 (UniProt Q92597) | -1.31
ANXA6 (UniProt P08133) | 2.15
MYO18A | 0.197
MORC2 (UniProt Q9Y6X9) | -0.726
PROSER2 (UniProt Q86WR7) | -0.644
SOWAHC (UniProt Q53LP3) | 0.0878
FUBP3 (UniProt Q96I24) | 0.385
CPNE3 (UniProt O75131) | 0.283
P3H2 (UniProt Q8IVL5) | 1.11
CD46 (UniProt P15529) | -0.443
MGRN1 (UniProt O60291) | -0.181
TMEM208 (UniProt Q9BTX3) | -0.159
EIF2B4 (UniProt Q9UI10) | 0.533
CCDC18 (UniProt Q5T9S5) | 0.0398
ARPC2 (UniProt O15144) | -1.15
ANKS1A (UniProt Q92625) | 0.294
P3H4 (UniProt Q92791) | 0.936

Target | thermal stability z-score
TRADD (UniProt Q15628) | -0.497
PAXBP1 (UniProt Q9Y5B6) | 0.0461
RHBDD2 (UniProt Q6NTF9) | -0.574
HOOK1 (UniProt Q9UJC3) | -0.199
IRF2BP2 (UniProt Q7Z5L9) | -2.51
DNAJC16 (UniProt Q9Y2G8) | 0.00733
RASSF8 (UniProt Q8NHQ8) | -0.0803
CWC22 (UniProt Q9HCG8) | -0.263
NEK9 (UniProt Q8TD19) | 0.719
TTF2 (UniProt Q9UNY4) | -0.0154
SLC44A1 (UniProt Q8WWI5) | -0.452
CDC26 (UniProt Q8NHZ8) | 0.691
EXOSC1 (UniProt Q9Y3B2) | -0.615
MGAT1 (UniProt P26572) | -0.0516
PES1 (UniProt O00541) | -0.721
VTI1A (UniProt Q96AJ9) | -0.0839
RAB13 (UniProt P51153) | 0.695
ARID1A (UniProt O14497) | -0.205
DUT (UniProt P33316) | -0.727
ITSN2 (UniProt Q9NZM3) | -0.725
ATG5 (UniProt Q9H1Y0) | -0.959
TESC (UniProt Q96BS2) | 0.846
LIFR (UniProt P42702) | -0.287
ATP6AP1 (UniProt Q15904) | 0.569

Target | thermal stability z-score
ACTR1A (UniProt P61163) | -0.614
SMARCC2 (UniProt Q8TAQ2) | 0.305
RNF113A (UniProt O15541) | -0.554
MAGED2 (UniProt Q9UNF1) | 0.741
GPHN (UniProt Q9NQX3) | -0.949
CHAC2 (UniProt Q8WUX2) | 0.455
EXOC4 (UniProt Q96A65) | 0.0526
DDX59 (UniProt Q5T1V6) | -1.01
POR (UniProt P16435) | 1.03
LMBRD1 (UniProt Q9NUN5) | 0.252
C1QBP (UniProt Q07021) | -1.28
HEL | -0.18
FXN (UniProt Q16595) | 1.14
PEX16 (UniProt Q9Y5Y5) | -0.441
MYO1C (UniProt O00159) | -1.94
SSU72 (UniProt Q9NP77) | -0.473
ERO1A (UniProt Q96HE7) | 0.59
BANF1 (UniProt O75531) | -2.36
PNP (UniProt P00491) | 0.178
PSMF1 (UniProt Q92530) | -0.0444
ITGB5 (UniProt P18084) | 0.289
BTN2A1 (UniProt Q7KYR7) | 0.0455
CLEC16A (UniProt Q2KHT3) | -0.437
SRGAP2 (UniProt O75044) | 0.309

compound: NC(=O)CCCCC1CCSS1 [lipoamide]; test: as above; conditions: HeLa; lipoamide concentration 100 µM; arsenate co-treatment: 1 mM arsenate 1 h
Experimental: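 Cellular thermal proteome profiling in HeLa cells. Cells were treated with 100 µM lipoamide for 1 h, with or without 1 mM arsenate for a further 1 h, then heated to ten temperatures (37-66.3 °C), and soluble protein was quantified by TMT mass spectrometry relative to 0.1% DMSO controls. The thermal stability score (sum of log2 fold changes minus the abundance score) was transformed to a z-score; mean of n = 3 experiments.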

Target | thermal stability z-score
RBM34 (UniProt P42696) | 0.0729
STX7 (UniProt O15400) | -0.0553
ASPSCR1 (UniProt Q9BZE9) | 0.207
RPL15 (UniProt P61313) | 0.537
BNIP3 (UniProt Q12983) | 0.679
MRPL40 (UniProt Q9NQ50) | 0.157
ZC3H14 (UniProt Q6PJT7) | 0.686
NDRG1 (UniProt Q92597) | -0.311
ANXA6 (UniProt P08133) | 3.2
MYO18A | -0.283
MORC2 (UniProt Q9Y6X9) | -0.165
PROSER2 (UniProt Q86WR7) | -0.111
SOWAHC (UniProt Q53LP3) | 0.277
FUBP3 (UniProt Q96I24) | 0.25
CPNE3 (UniProt O75131) | 1.73
P3H2 (UniProt Q8IVL5) | -4.71
CD46 (UniProt P15529) | -0.681
MGRN1 (UniProt O60291) | -0.792
TMEM208 (UniProt Q9BTX3) | 0.0799
EIF2B4 (UniProt Q9UI10) | -0.154
CCDC18 (UniProt Q5T9S5) | 0.0532
ARPC2 (UniProt O15144) | -0.317
ANKS1A (UniProt Q92625) | -0.553
P3H4 (UniProt Q92791) | -4.72

Target | thermal stability z-score
TRADD (UniProt Q15628) | 0.0371
PAXBP1 (UniProt Q9Y5B6) | 0.125
RHBDD2 (UniProt Q6NTF9) | -0.424
HOOK1 (UniProt Q9UJC3) | -1.15
IRF2BP2 (UniProt Q7Z5L9) | 0.371
DNAJC16 (UniProt Q9Y2G8) | -0.913
RASSF8 (UniProt Q8NHQ8) | -0.0675
CWC22 (UniProt Q9HCG8) | -0.0873
NEK9 (UniProt Q8TD19) | -0.25
TTF2 (UniProt Q9UNY4) | -1.12
SLC44A1 (UniProt Q8WWI5) | 0.347
CDC26 (UniProt Q8NHZ8) | 1.32
EXOSC1 (UniProt Q9Y3B2) | 0.0998
MGAT1 (UniProt P26572) | -0.313
PES1 (UniProt O00541) | -0.108
VTI1A (UniProt Q96AJ9) | 0.054
RAB13 (UniProt P51153) | -0.898
ARID1A (UniProt O14497) | 0.0489
DUT (UniProt P33316) | -0.171
ITSN2 (UniProt Q9NZM3) | -0.803
ATG5 (UniProt Q9H1Y0) | -0.255
TESC (UniProt Q96BS2) | 0.565
LIFR (UniProt P42702) | -1.35
ATP6AP1 (UniProt Q15904) | -0.952

Target | thermal stability z-score
ACTR1A (UniProt P61163) | 0.0148
SMARCC2 (UniProt Q8TAQ2) | 1.35
RNF113A (UniProt O15541) | -0.642
MAGED2 (UniProt Q9UNF1) | -0.0801
GPHN (UniProt Q9NQX3) | -0.406
CHAC2 (UniProt Q8WUX2) | -0.0361
EXOC4 (UniProt Q96A65) | -0.433
DDX59 (UniProt Q5T1V6) | -0.512
POR (UniProt P16435) | -0.215
LMBRD1 (UniProt Q9NUN5) | -0.626
C1QBP (UniProt Q07021) | -0.549
HEL | -0.604
FXN (UniProt Q16595) | 0.688
PEX16 (UniProt Q9Y5Y5) | -1.58
MYO1C (UniProt O00159) | 1.12
SSU72 (UniProt Q9NP77) | -0.256
ERO1A (UniProt Q96HE7) | -0.923
BANF1 (UniProt O75531) | 0.324
PNP (UniProt P00491) | 0.446
PSMF1 (UniProt Q92530) | -0.319
ITGB5 (UniProt P18084) | -1.1
BTN2A1 (UniProt Q7KYR7) | -0.659
CLEC16A (UniProt Q2KHT3) | 0.0777
SRGAP2 (UniProt O75044) | -0.272

same assay, conditions: HeLa; lipoamide concentration 100 µM; arsenate co-treatment: none

Target | thermal stability z-score
RBM34 (UniProt P42696) | -0.0422
STX7 (UniProt O15400) | 0.417
ASPSCR1 (UniProt Q9BZE9) | -0.218
RPL15 (UniProt P61313) | 0.113
BNIP3 (UniProt Q12983) | 0.193
MRPL40 (UniProt Q9NQ50) | 0.0972
ZC3H14 (UniProt Q6PJT7) | -0.0584
NDRG1 (UniProt Q92597) | -0.62
ANXA6 (UniProt P08133) | 3.6
MYO18A | 0.122
MORC2 (UniProt Q9Y6X9) | -0.0529
PROSER2 (UniProt Q86WR7) | -0.0827
SOWAHC (UniProt Q53LP3) | 0.343
FUBP3 (UniProt Q96I24) | 0.329
CPNE3 (UniProt O75131) | 2.22
P3H2 (UniProt Q8IVL5) | -4.05
CD46 (UniProt P15529) | -0.571
MGRN1 (UniProt O60291) | -0.153
TMEM208 (UniProt Q9BTX3) | -0.132
EIF2B4 (UniProt Q9UI10) | 0.0556
CCDC18 (UniProt Q5T9S5) | -0.042
ARPC2 (UniProt O15144) | -0.205
ANKS1A (UniProt Q92625) | 0.198
P3H4 (UniProt Q92791) | -3.94

Target | thermal stability z-score
TRADD (UniProt Q15628) | 0.0442
PAXBP1 (UniProt Q9Y5B6) | 0.182
RHBDD2 (UniProt Q6NTF9) | -0.384
HOOK1 (UniProt Q9UJC3) | -0.591
IRF2BP2 (UniProt Q7Z5L9) | -0.0192
DNAJC16 (UniProt Q9Y2G8) | -2.01
RASSF8 (UniProt Q8NHQ8) | -0.05
CWC22 (UniProt Q9HCG8) | 0.0387
NEK9 (UniProt Q8TD19) | -0.366
TTF2 (UniProt Q9UNY4) | 0.461
SLC44A1 (UniProt Q8WWI5) | -0.0965
CDC26 (UniProt Q8NHZ8) | 0.534
EXOSC1 (UniProt Q9Y3B2) | -1.26
MGAT1 (UniProt P26572) | -0.685
PES1 (UniProt O00541) | 0.121
VTI1A (UniProt Q96AJ9) | 0.419
RAB13 (UniProt P51153) | -0.475
ARID1A (UniProt O14497) | -0.0643
DUT (UniProt P33316) | 0.377
ITSN2 (UniProt Q9NZM3) | -1.23
ATG5 (UniProt Q9H1Y0) | -0.342
TESC (UniProt Q96BS2) | 0.315
LIFR (UniProt P42702) | -0.675
ATP6AP1 (UniProt Q15904) | -0.601

Target | thermal stability z-score
ACTR1A (UniProt P61163) | 0.0511
SMARCC2 (UniProt Q8TAQ2) | 1.85
RNF113A (UniProt O15541) | -0.0196
MAGED2 (UniProt Q9UNF1) | 0.24
GPHN (UniProt Q9NQX3) | -0.149
CHAC2 (UniProt Q8WUX2) | 0.0338
EXOC4 (UniProt Q96A65) | -0.0966
DDX59 (UniProt Q5T1V6) | -0.363
POR (UniProt P16435) | -0.028
LMBRD1 (UniProt Q9NUN5) | -0.635
C1QBP (UniProt Q07021) | 0.0636
HEL | -0.392
FXN (UniProt Q16595) | 0.447
PEX16 (UniProt Q9Y5Y5) | -0.719
MYO1C (UniProt O00159) | 0.329
SSU72 (UniProt Q9NP77) | -0.465
ERO1A (UniProt Q96HE7) | 0.193
BANF1 (UniProt O75531) | -0.358
PNP (UniProt P00491) | 0.411
PSMF1 (UniProt Q92530) | -0.0828
ITGB5 (UniProt P18084) | -0.661
BTN2A1 (UniProt Q7KYR7) | -0.638
CLEC16A (UniProt Q2KHT3) | -0.0307
SRGAP2 (UniProt O75044) | -0.287
